Test results: US20180296630A1, “METHODS AND COMPOSITIONS FOR PREVENTING OR TREATING OPHTHALMIC CONDITIONS” (Stealth BioTherapeutics Corp, priority 2012, published 2018)

Tests used:
[1] = test system: trabecular meshwork cells from POAG patients (GTM); test: LDH cytotoxicity assay, GTM cells; type: cell-based, human
Excerpt: In this Example, the effects of the aromatic-cationic peptides of the invention were compared between trabecular meshwork cells from POAG patients (GTM) and trabecular meshwork cells from non-diseased individuals (HTM). Methods useful in the studies of the present invention have been described. See generally, He Y, Ge J, Tombran-Tink J., Mitochondrial defects and dysfunction in calcium regulation in glaucomatous trabecular meshwork cells. Invest Ophthalmol Vis Sci. 2008, 49(11):4912-22; He Y, Leung K W, Zhang Y H, Duan S, Zhong X F, Jiang R Z, Peng Z, Tombran-Tink J, Ge J. Mitochondrial complex I defect induces ROS release and degeneration in trabecular meshwork cells of POAG patients: protection by antioxidants. Invest Ophthalmol Vis Sci. 2008, 49(4):1447-58. […]
To assess whether D-Arg-2′,6′-Dmt-Lys-Phe-NH2 had cytotoxic effects of HTM or GTM cells, various concentrations of D-Arg-2′,6′-Dmt-Lys-Phe-NH2 were administered to cells and the cytotoxicity was measured using an LDH assay. […] The assay quantitatively measures the stable, cytosolic, lactate dehydrogenase (LDH) enzyme, which is released from damaged cells. The released LDH is measured with a coupled enzymatic reaction that results in the conversion of a tetrazolium salt (iodonitrotetrazolium (INT)) into a red color formazan by diaphorase. […] The LDH activity is determined as NADH oxidation or INT reduction over a defined time period.

661W cells = test: tBHP-induced death of 661W cone cells; type: cell-based, mouse; details: different doses
Procedure: A cone cell specific line 661W was derived from a mouse retinal tumor. Methods useful in the present studies of 661W cells have been described previously. See generally, Gearóid Tuohy, Sophia Millington-Ward, Paul F. Kenna, Peter Humphries and G. Jane Farrar, Sensitivity of Photoreceptor-Derived Cell Line (661W) to Baculoviral p35, Z-VAD.FMK, and Fas-Associated Death Domain, Investigative Ophthalmology and Visual Science. 2002; 43:3583-3589. These cells were cultured to test the effects of the aromatic-cationic peptides of the invention in preventing or reducing oxidative damage in the cone cells (FIG. 27). First, it was shown that tBHP affected survival of 661W cells (FIG. 27A). Different doses of tBHP were administered to the cells for 3 h. Next, it was shown that different doses of D-Arg-2′,6′-Dmt-Lys-Phe-NH2 reduced tBHP-induced 661W cell death (FIG. 27B).

GTM cells = test: Mitochondrial membrane potential of GTM cells exposed to H2O2 (TMRM, confocal microscopy / flow cytometry); type: cell-based, human
Excerpt: Methods to measure mitochondrial membrane potential using TMRM useful in the studies of the present invention have been described by Andrea Rasola and Massimo Geuna, A flow cytometry assay simultaneously detects independent apoptotic parameters, Cytometry 45:151-157, 2001; Mitoprobe™ JC-1 Kit for Flow Cytometry, Molecular Probes, Invitrogen, USA.
The mitochondrial membrane potential (Δψm) of HTM and GTM cells was investigated when those cells were exposed to hydrogen peroxide prior to administration of D-Arg-2′,6′-Dmt-Lys-Phe-NH2. First, the mitochondrial membrane potential was measured using confocal microscopy of cells labeled with tetramethylrhodamine methyl ester (TMRM, 500 nM×30 min) (FIG. 15). The mitochondrial membrane potential was also measured using flow cytometry (FIGS. 16-17) by labeling cells with the mitochondrion-selective probe tetramethylrhodamine methyl ester (TMRM, 500 nM×30 min).
The morphology of GTM cells was investigated when those cells were exposed to D-Arg-2′,6′-Dmt-Lys-Phe-NH2 prior to administration of hydrogen peroxide. […] That is, hydrogen peroxide mediated cell loss and rounding was diminished in cells exposed to D-Arg-2′,6′-Dmt-Lys-Phe-NH2 peptide. The mitochondrial membrane potential (Δψm) of HTM and GTM cells was also investigated when those cells were exposed to D-Arg-2′,6′-Dmt-Lys-Phe-NH2 prior to administration of hydrogen peroxide. The mitochondrial membrane potential was measured using confocal microscopy of cells labeled with tetramethylrhodamine methyl ester (TMRM, 500 nM×30 min) (FIG. 19-21). […] As such, D-Arg-2′,6′-Dmt-Lys-Phe-NH2 provides a protective effect against oxidative stress in GTM cells.

GTM and HTM cells = test: Cell apoptosis induced by H2O2 (percentage of cells in Q2+Q4); type: cell-based, human; details: FIG. 38
Excerpt: FIG. 38A-38D are graphs showing cell apoptosis of control and D-Arg-2′,6′-Dmt-Lys-Phe-NH2(SS-31)-treated groups valued by percentage of cells in the Q2+Q4 quadrant.
The percentage of intracellular ROS production compared to GTM control in GTM H2O2, D-Arg-2′,6′-Dmt-Lys-Phe-NH2 10^−6M, D-Arg-2′,6′-Dmt-Lys-Phe-NH2 10^−7M, D-Arg-2′,6′-Dmt-Lys-Phe-NH2 10^−8M groups were 146.0±2.27%, 84.5±8.75%, 102.0±5.69%, 133.0±5.17% respectively (n=3); the HTM groups were 153.0±3.46%, 79±2.39%, 91.8±3.49%, 129.0±8.24% respectively (n=4). P<0.001 GTM and HTM H2O2 Group compared to control; *** means P<0.001 compared to GTM H2O2 group; ▴ ▴ ▴ Means P<0.001 compared to HTM H2O2 group; ▴ ▴ means P<0.01 compared to HTM H2O2 group.

D-Arg-2′,6′-Dmt-Lys-Phe-NH2
cytotoxicity ([1]; 10^−4M): no cytotoxicity | viability (LDH assay) ([1]; various concentrations): does not affect the viability | tBHP-induced 661W cell death (661W cells): reduced | decrease in mitochondrial potential (Δψm) elicited by H2O2 (GTM cells; GTM cells, co-treatment, 200 μM H2O2, confocal): dose-dependently inhibited the decrease | loss of mitochondrial membrane potential caused by H2O2 (GTM cells; GTM cells, co-treatment, 400 μM H2O2, dose-dependent, confocal): reduced the loss | mitochondrial membrane potential (GTM cells; cells exposed to hydrogen peroxide prior to administration of peptide (Group A)): improves | mitochondrial membrane potential (GTM cells; pre-treatment with peptide before hydrogen peroxide (Group B)): dose-dependently improves | amount of cell apoptosis induced by H2O2 (GTM and HTM cells): reduced
